Measured values reported in doi:10.1101/2023.11.24.568596v1 (biorxiv, 2023).
Blank lines part the entries; values can stand above or below the compound they belong to.

Legend:
Details in all cases: binder
BRAF = BRAF (Homo sapiens, UniProt P15056)
CLK3 = CLK3 (Homo sapiens, UniProt P49761)
CaMK4 = biological target: T1, CaMK4 (Homo sapiens, UniProt Q16566)
T1 sequence (Q16566 1-473): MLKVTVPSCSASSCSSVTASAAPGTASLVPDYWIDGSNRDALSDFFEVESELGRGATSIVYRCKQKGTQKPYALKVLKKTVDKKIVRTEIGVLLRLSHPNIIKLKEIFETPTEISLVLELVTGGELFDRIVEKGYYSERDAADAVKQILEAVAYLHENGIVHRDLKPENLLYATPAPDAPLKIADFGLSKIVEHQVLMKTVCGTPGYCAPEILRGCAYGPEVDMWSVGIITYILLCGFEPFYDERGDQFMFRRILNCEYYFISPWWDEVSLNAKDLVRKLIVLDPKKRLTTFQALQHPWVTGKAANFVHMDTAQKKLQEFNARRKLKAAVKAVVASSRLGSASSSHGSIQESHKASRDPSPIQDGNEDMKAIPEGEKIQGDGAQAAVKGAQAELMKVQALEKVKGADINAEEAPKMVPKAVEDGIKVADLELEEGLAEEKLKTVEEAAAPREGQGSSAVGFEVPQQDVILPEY

DMPK1 = biological target: T2, DMPK1 (Homo sapiens, UniProt Q09013)
T2 sequence (Q09013 1-629): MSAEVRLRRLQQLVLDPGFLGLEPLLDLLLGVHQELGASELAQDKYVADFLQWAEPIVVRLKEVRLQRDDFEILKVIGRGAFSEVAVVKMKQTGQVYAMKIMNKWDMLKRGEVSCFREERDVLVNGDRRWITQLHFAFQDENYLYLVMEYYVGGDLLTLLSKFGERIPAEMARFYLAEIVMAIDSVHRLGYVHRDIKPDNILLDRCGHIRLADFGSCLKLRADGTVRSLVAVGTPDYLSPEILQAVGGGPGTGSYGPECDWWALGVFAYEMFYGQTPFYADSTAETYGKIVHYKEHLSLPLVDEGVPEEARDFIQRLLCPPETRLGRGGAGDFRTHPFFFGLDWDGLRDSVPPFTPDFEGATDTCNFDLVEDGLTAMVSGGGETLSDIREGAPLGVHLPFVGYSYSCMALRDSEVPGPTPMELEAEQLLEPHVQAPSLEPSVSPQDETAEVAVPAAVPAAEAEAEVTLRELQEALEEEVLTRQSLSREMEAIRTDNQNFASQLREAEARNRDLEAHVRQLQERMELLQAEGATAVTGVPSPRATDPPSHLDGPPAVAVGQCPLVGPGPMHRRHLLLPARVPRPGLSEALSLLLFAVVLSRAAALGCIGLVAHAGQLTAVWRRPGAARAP

FES = FES (Homo sapiens, UniProt P07332)
FGFR1 = FGFR1 (Homo sapiens, UniProt P11362)
MER = biological target: T3, MER (Homo sapiens, UniProt Q12866)
T3 sequence (Q12866 1-999): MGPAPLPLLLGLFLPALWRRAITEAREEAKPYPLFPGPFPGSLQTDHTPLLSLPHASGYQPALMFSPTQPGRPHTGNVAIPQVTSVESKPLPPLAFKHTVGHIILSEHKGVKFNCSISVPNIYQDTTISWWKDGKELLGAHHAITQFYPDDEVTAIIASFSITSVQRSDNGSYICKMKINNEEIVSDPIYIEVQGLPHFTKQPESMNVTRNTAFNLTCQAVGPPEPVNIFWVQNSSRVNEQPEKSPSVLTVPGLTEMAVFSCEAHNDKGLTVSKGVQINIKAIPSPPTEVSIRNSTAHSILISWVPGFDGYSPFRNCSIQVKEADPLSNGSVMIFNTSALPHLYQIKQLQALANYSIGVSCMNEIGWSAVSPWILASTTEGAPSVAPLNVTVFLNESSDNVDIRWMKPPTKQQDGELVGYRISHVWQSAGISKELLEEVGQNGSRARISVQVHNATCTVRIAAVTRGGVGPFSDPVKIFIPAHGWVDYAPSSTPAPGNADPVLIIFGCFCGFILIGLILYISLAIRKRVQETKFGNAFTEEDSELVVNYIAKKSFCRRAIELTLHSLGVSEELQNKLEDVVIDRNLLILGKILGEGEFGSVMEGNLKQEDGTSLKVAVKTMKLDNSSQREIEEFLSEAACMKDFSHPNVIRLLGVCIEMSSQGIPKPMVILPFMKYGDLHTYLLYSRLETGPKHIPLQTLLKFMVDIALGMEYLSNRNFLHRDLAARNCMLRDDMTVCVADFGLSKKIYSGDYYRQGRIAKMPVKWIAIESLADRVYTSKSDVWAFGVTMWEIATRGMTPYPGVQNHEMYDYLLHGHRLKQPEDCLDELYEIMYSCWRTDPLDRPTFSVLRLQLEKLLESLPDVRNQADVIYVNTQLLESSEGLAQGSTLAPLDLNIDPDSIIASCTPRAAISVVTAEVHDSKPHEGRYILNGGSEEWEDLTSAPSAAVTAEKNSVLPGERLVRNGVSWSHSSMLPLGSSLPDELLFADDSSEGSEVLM

MST3 = MST3 (Homo sapiens, UniProt Q9Y6E0)
PIM1 = PIM1 (Homo sapiens, UniProt P11309)
Sequence of PIM1 (P11309 whole entry): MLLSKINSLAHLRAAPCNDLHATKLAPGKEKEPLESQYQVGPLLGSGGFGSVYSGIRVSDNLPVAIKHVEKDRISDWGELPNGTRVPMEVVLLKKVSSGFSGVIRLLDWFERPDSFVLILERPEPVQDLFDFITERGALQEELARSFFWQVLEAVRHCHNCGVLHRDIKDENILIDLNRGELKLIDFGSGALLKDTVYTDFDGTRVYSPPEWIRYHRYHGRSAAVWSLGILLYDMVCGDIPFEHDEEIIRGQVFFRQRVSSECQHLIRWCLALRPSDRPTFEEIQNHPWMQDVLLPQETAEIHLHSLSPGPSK

Sequence of CLK3 (P49761 whole entry): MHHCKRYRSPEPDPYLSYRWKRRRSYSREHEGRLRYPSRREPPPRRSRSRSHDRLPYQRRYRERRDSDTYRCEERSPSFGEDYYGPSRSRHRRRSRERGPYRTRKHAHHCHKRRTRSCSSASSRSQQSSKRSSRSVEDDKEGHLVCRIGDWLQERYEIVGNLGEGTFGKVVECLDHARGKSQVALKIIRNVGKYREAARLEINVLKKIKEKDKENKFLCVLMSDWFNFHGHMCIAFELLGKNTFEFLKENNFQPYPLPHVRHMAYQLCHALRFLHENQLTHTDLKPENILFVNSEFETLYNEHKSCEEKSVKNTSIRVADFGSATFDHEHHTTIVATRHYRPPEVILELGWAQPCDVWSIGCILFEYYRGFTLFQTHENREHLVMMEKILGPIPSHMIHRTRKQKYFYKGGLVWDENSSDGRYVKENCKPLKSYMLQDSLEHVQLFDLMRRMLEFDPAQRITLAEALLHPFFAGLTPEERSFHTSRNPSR
Sequence of MST3 (Q9Y6E0 whole entry): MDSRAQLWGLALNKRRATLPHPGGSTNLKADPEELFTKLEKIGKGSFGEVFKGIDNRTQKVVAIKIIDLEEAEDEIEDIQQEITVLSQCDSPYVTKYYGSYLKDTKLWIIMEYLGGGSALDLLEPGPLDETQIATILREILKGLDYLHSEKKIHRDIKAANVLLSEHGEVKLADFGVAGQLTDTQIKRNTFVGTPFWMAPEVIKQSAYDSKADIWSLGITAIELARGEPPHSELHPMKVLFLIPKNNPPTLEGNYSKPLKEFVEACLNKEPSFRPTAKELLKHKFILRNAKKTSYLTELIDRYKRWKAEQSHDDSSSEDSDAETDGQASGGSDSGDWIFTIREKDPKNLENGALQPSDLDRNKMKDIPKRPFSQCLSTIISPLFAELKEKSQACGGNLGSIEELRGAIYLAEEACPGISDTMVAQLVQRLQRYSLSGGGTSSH
Sequence of FES (P07332 whole entry): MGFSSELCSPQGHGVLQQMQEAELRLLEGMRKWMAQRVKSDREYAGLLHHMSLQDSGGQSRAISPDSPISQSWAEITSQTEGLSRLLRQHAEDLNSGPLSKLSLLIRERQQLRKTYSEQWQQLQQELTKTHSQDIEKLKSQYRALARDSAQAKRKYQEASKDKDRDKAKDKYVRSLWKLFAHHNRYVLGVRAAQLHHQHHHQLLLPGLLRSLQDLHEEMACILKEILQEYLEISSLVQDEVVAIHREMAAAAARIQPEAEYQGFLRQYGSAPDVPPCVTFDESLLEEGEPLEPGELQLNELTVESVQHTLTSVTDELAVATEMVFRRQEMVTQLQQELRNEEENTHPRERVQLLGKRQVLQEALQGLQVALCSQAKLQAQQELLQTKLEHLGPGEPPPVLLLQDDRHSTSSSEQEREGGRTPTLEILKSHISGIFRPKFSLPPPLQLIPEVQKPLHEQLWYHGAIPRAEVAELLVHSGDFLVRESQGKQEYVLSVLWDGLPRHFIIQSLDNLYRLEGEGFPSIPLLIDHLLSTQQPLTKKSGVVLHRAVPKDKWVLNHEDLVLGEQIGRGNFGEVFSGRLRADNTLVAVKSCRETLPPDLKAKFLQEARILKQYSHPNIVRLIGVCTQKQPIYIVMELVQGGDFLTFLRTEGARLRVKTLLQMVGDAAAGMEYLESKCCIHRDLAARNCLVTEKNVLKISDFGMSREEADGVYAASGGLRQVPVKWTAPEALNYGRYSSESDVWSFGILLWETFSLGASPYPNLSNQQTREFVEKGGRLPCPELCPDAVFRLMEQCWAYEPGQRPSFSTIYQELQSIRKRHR
Sequence of FGFR1 (P11362 whole entry): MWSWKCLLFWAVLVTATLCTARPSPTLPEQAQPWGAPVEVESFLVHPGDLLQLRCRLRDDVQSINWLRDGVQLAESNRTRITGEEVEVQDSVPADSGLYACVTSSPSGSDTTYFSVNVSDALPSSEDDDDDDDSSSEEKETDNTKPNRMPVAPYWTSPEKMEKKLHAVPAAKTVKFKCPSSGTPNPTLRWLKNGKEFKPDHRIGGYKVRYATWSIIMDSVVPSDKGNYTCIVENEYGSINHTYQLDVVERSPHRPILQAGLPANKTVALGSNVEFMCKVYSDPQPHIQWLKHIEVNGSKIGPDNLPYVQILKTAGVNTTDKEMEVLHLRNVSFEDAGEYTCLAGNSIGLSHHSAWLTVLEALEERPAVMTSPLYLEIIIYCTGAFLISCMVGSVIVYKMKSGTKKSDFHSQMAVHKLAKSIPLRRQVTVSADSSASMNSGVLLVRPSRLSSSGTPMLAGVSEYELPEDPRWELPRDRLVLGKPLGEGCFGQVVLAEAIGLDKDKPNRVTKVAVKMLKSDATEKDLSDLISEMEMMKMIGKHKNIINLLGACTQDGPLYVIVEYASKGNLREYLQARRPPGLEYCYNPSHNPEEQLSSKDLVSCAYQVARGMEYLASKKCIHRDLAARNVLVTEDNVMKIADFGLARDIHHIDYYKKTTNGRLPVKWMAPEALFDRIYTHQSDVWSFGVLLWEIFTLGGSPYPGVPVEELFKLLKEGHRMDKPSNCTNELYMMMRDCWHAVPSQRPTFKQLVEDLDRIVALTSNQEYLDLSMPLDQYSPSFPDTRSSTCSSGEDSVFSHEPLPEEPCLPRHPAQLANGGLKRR
Sequence of BRAF (P15056 whole entry): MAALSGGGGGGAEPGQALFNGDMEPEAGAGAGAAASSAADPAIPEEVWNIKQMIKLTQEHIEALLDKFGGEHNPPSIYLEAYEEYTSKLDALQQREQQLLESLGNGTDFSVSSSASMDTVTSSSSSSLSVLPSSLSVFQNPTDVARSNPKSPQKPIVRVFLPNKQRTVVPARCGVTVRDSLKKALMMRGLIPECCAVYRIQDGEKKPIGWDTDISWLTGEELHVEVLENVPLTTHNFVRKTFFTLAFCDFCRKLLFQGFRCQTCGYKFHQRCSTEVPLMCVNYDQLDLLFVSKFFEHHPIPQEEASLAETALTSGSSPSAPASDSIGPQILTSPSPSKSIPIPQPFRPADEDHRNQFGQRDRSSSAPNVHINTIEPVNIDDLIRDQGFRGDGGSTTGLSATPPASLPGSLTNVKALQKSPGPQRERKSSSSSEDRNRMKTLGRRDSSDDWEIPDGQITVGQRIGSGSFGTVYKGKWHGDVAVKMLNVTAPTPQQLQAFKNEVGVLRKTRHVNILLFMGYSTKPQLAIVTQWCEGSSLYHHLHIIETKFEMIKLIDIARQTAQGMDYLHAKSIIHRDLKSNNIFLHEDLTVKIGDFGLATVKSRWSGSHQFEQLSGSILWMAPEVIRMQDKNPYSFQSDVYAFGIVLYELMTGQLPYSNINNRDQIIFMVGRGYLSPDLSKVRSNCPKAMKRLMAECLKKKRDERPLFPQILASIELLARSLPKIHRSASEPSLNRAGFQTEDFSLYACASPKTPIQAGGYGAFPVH

SMILES: CNc1ncc2cc(-c3ccc(-c4cccc(C)n4)cc3Cl)c(=O)n(CCCCN)c2n1 [compound 20, MRLW5]
ΔTm MRLW5 (20) (BRAF): 4.1 °C
ΔTm MRLW5 (20) (CLK3): 0.2 °C
ΔTm MRLW5 (20) (CaMK4): 2.9 °C
ΔTm MRLW5 (20) (DMPK1): 0.8 °C
ΔTm MRLW5 (20) (FES): 5.9 °C
ΔTm MRLW5 (20) (FGFR1): 0.4 °C
ΔTm MRLW5 (20) (MER): 2.5 °C
ΔTm MRLW5 (20) (MST3): 11.7 °C
ΔTm MRLW5 (20) (PIM1): -0.1 °C

SMILES: Cc1cccc(-c2ccc(-c3cc4cnc(NC(CO)CO)nc4n(CCCCN)c3=O)c(Cl)c2)n1 [compound 24, 8-(4-Aminobutyl)-6-(2-chloro-4-(6-methylpyridin-2-yl)phenyl)-2-((1,3-dihydroxypropan-2-yl)amino)pyrido[2,3-d]pyrimidin-7(8H)-one]
ΔTm MR24 (24) (BRAF): 1.2 °C
ΔTm MR24 (24) (CLK3): -0.2 °C
ΔTm MR24 (24) (CaMK4): 1.2 °C
ΔTm MR24 (24) (DMPK1): -1.3 °C
ΔTm MR24 (24) (FES): 4.3 °C
ΔTm MR24 (24) (FGFR1): 0.4 °C
ΔTm MR24 (24) (MER): -0.7 °C
ΔTm MR24 (24) (MST3): 11.0 °C
ΔTm MR24 (24) (PIM1): 0.5 °C

SMILES: Cc1cccc(-c2ccc(-c3cc4cnc(NCCCc5ccc(N)cc5)nc4n(CCCCN)c3=O)c(Cl)c2)n1 [compound 25, 8-(4-Aminobutyl)-2-((3-(4-aminophenyl)propyl)amino)-6-(2-chloro-4-(6-methylpyridin-2-yl)phenyl)pyrido[2,3-d]pyrimidin-7(8H)-one]
ΔTm 25 (BRAF): 5.2 °C
ΔTm 25 (CLK3): -0.3 °C
ΔTm 25 (CaMK4): 5.4 °C
ΔTm 25 (DMPK1): -2.7 °C
ΔTm 25 (FES): 5.9 °C
ΔTm 25 (FGFR1): -0.4 °C
ΔTm 25 (MER): 1.6 °C
ΔTm 25 (MST3): 11.8 °C
ΔTm 25 (PIM1): 0.3 °C

More lines, now with the values ahead:

ΔTm 22 (BRAF): 6.3 °C
ΔTm 22 (CLK3): -0.4 °C
ΔTm 22 (CaMK4): 4.8 °C
ΔTm 22 (DMPK1): -1.7 °C
ΔTm 22 (FES): 5.4 °C
ΔTm 22 (FGFR1): 1.1 °C
ΔTm 22 (MER): 2.6 °C
ΔTm 22 (MST3): 10.5 °C
ΔTm 22 (PIM1): -0.4 °C
SMILES: CNc1ncc2cc(-c3ccc(-c4cccc(C)n4)cc3Cl)c(=O)n(CCC3CCNCC3)c2n1 [compound 22, 6-(2-Chloro-4-(6-methylpyridin-2-yl)phenyl)-2-(methylamino)-8-(2-(piperidin-4-yl)ethyl)pyrido[2,3-d]pyrimidin-7(8H)-one]

ΔTm 23 (BRAF): 6.2 °C
ΔTm 23 (CLK3): 1.0 °C
ΔTm 23 (CaMK4): 6.9 °C
ΔTm 23 (DMPK1): -2.8 °C
ΔTm 23 (FES): 5.5 °C
ΔTm 23 (FGFR1): 0.7 °C
ΔTm 23 (MER): 3.1 °C
ΔTm 23 (MST3): 10.8 °C
ΔTm 23 (PIM1): -0.7 °C
SMILES: CNc1ncc2cc(-c3ccc(-c4cccc(C)n4)cc3Cl)c(=O)n(C[C@H]3CC[C@H](N)CC3)c2n1 [compound 23, 23]

ΔTm MR26 (26) (BRAF): 1.7 °C
ΔTm MR26 (26) (CLK3): -0.4 °C
ΔTm MR26 (26) (CaMK4): 2.2 °C
ΔTm MR26 (26) (DMPK1): -1.3 °C
ΔTm MR26 (26) (FES): 5.6 °C
ΔTm MR26 (26) (FGFR1): 0.3 °C
ΔTm MR26 (26) (MER): 1.0 °C
ΔTm MR26 (26) (MST3): 12.4 °C
ΔTm MR26 (26) (PIM1): 0.3 °C
SMILES: Cc1cccc(-c2ccc(-c3cc4cnc(NCCCN5CCOCC5)nc4n(CCCCN)c3=O)c(Cl)c2)n1 [compound 26, MR26]
